Assay results reported in US20240076297A1, “ADENOSINE A2A AND A2B RECEPTOR DUAL ANTAGONISTS FOR IMMUNO-ONCOLOGY” (Merck Sharp & Dohme LLC, priority 2020, published 2024).

target: human A2A adenosine receptor (Homo sapiens (Human), UniProt P29274); test: A2A binding affinity using radioligand binding, Method (A); details: Method (A): filtration radioligand binding, [3H] SCH58261, membranes expressing human A2A
From the text: Method (A) describes the procedure used to measure A2A binding affinity using radioligand binding. Method (B) describes the procedure used to measure A2A binding affinity using SPA technology. The method used to measure A2B binding affinity is also described below. The method used to determine the A2A IC50 value reported for each compound in the table is indicated next to the reported value. The A2B IC50 value measured using the A2B binding affinity assay is shown in the table next to the compound under the corresponding A2A value.
The A2A receptor affinity binding assay measured the amount of binding of a tritiated ligand with high affinity for the A2A adenosine receptor to membranes made from HEK293 or CHO cells recombinantly expressing the human A2A adenosine receptor, in the presence of varying concentrations of a compound of the invention. The data were generated using either filtration binding or a homogenous scintillation proximity assay (SPA).
Method (A): Measurement of A2A Binding Affinity Using Radioligand Binding
148 μL (5 μg/mL) membranes (Perkin Elmer, Cat. No. RBHA2aM400UA) and 2 μL compounds of the invention to be tested (test compound) were transferred to individual wells of a 96-well polypropylene assay plate and incubated for 15 to 30 min at room temperature. [^3H] SCH58261 ((7-(2-phenylethyl)-5-amino-2-(2-furyl)-pyrazolo-[4,3-e]-1,2,4-triazolo[1,5-c]pyrimidine)) was diluted in assay buffer (50 mM Tris pH 7.4, 10 mM MgCl2, 0.005% Tween20) to a concentration of 4 nM and 50 μL transferred to each well of the assay plate. To define total and non-specific binding, wells containing 1% DMSO and 1 μM ZM241385 (Tocris Bioscience, Cat. No. 1036) respectively, were also included. The assay plate was incubated at room temperature for 60 min with agitation. Using a FilterMate Harvester® (Perkin Elmer), the contents of the assay plate were filtered through a UniFilter-96® PEI coated plate (Perkin Elmer Cat. No. 6005274 or 6005277). Filtering was achieved by aspirating the contents of the assay plate for 5 sec, then washing and aspirating the contents three times with ice-cooled wash buffer (50 mM Tris-HCl pH 7.4, 150 mM NaCl) and allowing the vacuum manifold to dry the plate for 30 sec. The filter plate was incubated for at least 1 h at 55° C. and allowed to dry. The bottom of the filter plate was sealed with backing tape. 40 μL Ultima Gold™ (Perkin Elmer, Cat. No. 6013329) was added to each well of the filter plate and the top of the plate was sealed with TopSeal-A PLUS® clear plate seal (Perkin Elmer, Cat. No. 6050185). The plate was incubated for at least 20 min, and then the amount of radioactivity remaining in each well was determined using a TopCount® (Perkin Elmer) scintillation counter. After normalization to total and non-specific binding, the percent effect at each compound concentration was calculated. The plot of percent effect versus the log of compound concentration was analyzed electronically using a 4-parameter logistic fit based on the Levenberg-Marquardt algorithm to generate IC50 values.

Chain of human A2A adenosine receptor (P29274 whole entry): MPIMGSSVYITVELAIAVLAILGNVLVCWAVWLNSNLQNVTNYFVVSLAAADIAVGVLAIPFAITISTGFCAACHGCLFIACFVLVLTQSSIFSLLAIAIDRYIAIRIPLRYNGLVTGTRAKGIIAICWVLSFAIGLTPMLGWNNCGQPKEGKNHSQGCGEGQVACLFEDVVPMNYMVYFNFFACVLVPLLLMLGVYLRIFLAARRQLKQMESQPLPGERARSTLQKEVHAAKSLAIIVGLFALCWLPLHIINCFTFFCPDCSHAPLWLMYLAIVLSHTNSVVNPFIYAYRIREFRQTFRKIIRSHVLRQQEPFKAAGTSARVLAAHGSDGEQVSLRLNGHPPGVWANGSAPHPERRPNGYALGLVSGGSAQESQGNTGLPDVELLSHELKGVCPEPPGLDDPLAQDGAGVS

| SMILES | IC50 [nM] |
| --- | --- |
| COc1cccc2c1nc(N)n1nc(COC3CCc4c(nnn4C4CC(F)(F)C4)C3)nc21 (single isomer, unassigned) [Example 2.2A, (S or R)-2-(((1-(3,3-difluorocyclobutyl)-4,5,6,7-tetrahydro-1H-benzo[d][1,2,3]triazol-5-yl)oxy)methyl)-7-methoxy-[1,2,4]triazolo[1,5-c]quinazolin-5-amine] | 3.4 |
| COc1cc(F)cc2c1nc(N)n1nc(CCC3CCc4nn(C(C)C)cc4C3)nc21 (single isomer, unassigned) [Example 5.4B, (R or S)-9-fluoro-2-(2-(2-isopropyl-4,5,6,7-tetrahydro-2H-indazol-5-yl)ethyl)-7-methoxy-[1,2,4]triazolo[1,5-c]quinazolin-5-amine] | 5.5 |
| COc1cc(F)cc2c1nc(N)n1nc(CCC3CCn4c(cnc4C4CC(F)(F)C4)C3)nc21 (single isomer, unassigned) [Example 7.3A, (S or R)-2-(2-(3-(3,3-difluorocyclobutyl)-5,6,7,8-tetrahydroimidazo-[1,5-a]pyridin-7-yl)ethyl)-9-fluoro-7-methoxy-[1,2,4]triazolo[1,5-c]-quinazolin-5-amine] | 2.8 |
| COc1cc(F)cc2c1nc(N)n1nc(CCC3CCn4c(cnc4C4CC(F)(F)C4)C3)nc21 (single isomer, unassigned) [Example 7.3B, (R or S)-2-(2-(3-(3,3-difluorocyclobutyl)-5,6,7,8-tetrahydroimidazo-[1,5-a]pyridin-7-yl)ethyl)-9-fluoro-7-methoxy-[1,2,4]triazolo[1,5-c]-quinazolin-5-amine] | 4.6 |
| Nc1nc2c(F)cc(F)cc2c2nc(CCC3CCn4c(cnc4C4CC(F)(F)C4)C3)nn12 (single isomer, unassigned) [Example 7.4A, (S or R)-2-(2-(3-(3,3-difluorocyclobutyl)-5,6,7,8-tetrahydroimidazo-[1,5-a]pyridin-7-yl)ethyl)-7,9-difluoro-[1,2,4]triazolo[1,5-c]-quinazolin-5-amine] | 31.6 |
| COc1cc(F)cc2c1nc(N)n1nc(CCC3CCc4c(nnn4C4CC(F)(F)C4)C3)nc21 (single isomer, unassigned) [Example 7.6B, (R or S)-2-(2-(1-(3,3-difluorocyclobutyl)-4,5,6,7-tetrahydro-1H-benzo[d][1,2,3]triazol-5-yl)ethyl)-9-fluoro-7-methoxy-[1,2,4]-triazolo[1,5-c]quinazolin-5-amine] | 4.2 |
| COc1cc(F)cc2c1nc(N)n1nc(CCC3CCc4c(cnn4C(C)C)C3)nc21 (single isomer, unassigned) [Example 7.7A, (S or R)-9-fluoro-2-(2-(1-isopropyl-4,5,6,7-tetrahydro-1H-indazol-5-yl)ethyl)-7-methoxy-[1,2,4]triazolo[1,5-c]quinazolin-5-amine] | 5.5 |
| COc1cc(F)cc2c1nc(N)n1nc(CCC3CCc4c(cnn4C(C)C)C3)nc21 (single isomer, unassigned) [Example 7.7B, (R or S)-9-fluoro-2-(2-(1-isopropyl-4,5,6,7-tetrahydro-1H-indazol-5-yl)ethyl)-7-methoxy-[1,2,4]triazolo[1,5-c]quinazolin-5-amine] | 2.6 |
| COc1cc(F)cc2c1nc(N)n1nc(CC3CC3c3ccc(C(C)(C)N)cc3)nc21 (single isomer, unassigned) [Example 8.4A, 2-(((1S, 2R or 1R,2S)-2-(4-(2-aminopropan-2-yl)phenyl)-cyclopropyl)methyl)-9-fluoro-7-methoxy-[1,2,4]triazolo-[1,5-c]quinazolin-5-amine] | 10.2 |

The next compounds have a lower IC50 than those just listed; values first:

| IC50 [nM] | SMILES |
| --- | --- |
| 0.6 | COc1cccc2c1nc(N)n1nc(COC3CCc4c(nnn4C4CC(F)(F)C4)C3)nc21 (single isomer, unassigned) [Example 2.2B, (R or S)-2-(((1-(3,3-difluorocyclobutyl)-4,5,6,7-tetrahydro-1H-benzo[d][1,2,3]triazol-5-yl)oxy)methyl)-7-methoxy-[1,2,4]triazolo[1,5-c]quinazolin-5-amine] |
| 0.7 | COc1cccc2c1nc(N)n1nc(CCC3CCc4c(nnn4C(C)C)C3)nc21 (single isomer, unassigned) [Example 5.2A, (S or R)-2-(2-(1-isopropyl-4,5,6,7-tetrahydro-1H-benzo[d][1,2,3]triazol-5-yl)ethyl)-7-methoxy-[1,2,4]triazolo[1,5-c]quinazolin-5-amine] |
| 0.9 | COc1cccc2c1nc(N)n1nc(CCC3CCc4c(nnn4C4CC(F)(F)C4)C3)nc21 (single isomer, unassigned) [Example 5.3A, (S or R)-2-(2-(1-(3,3-difluorocyclobutyl)-4,5,6,7-tetrahydro-1H-benzo[d][1,2,3]triazol-5-yl)ethyl)-7-methoxy-[1,2,4]triazolo-[1,5-c]quinazolin-5-amine] |
| 2.5 | COc1cccc2c1nc(N)n1nc(CCC3CCc4nn(C(C)C)cc4C3)nc21 (single isomer, unassigned) [Example 7.2A, (S or R)-2-(2-(2-isopropyl-4,5,6,7-tetrahydro-2H-indazol-5-yl)ethyl)-7-methoxy-[1,2,4]triazolo[1,5-c]quinazolin-5-amine] |
| 2.3 | COc1cccc2c1nc(N)n1nc(CCC3CCc4nn(C(C)C)cc4C3)nc21 (single isomer, unassigned) [Example 7.2B, (R or S)-2-(2-(2-isopropyl-4,5,6,7-tetrahydro-2H-indazol-5-yl)ethyl)-7-methoxy-[1,2,4]triazolo[1,5-c]quinazolin-5-amine] |
| 2.2 | COc1cccc2c1nc(N)n1nc(CCC3CCn4c(cnc4C4CC(F)(F)C4)C3)nc21 (single isomer, unassigned) [Example 7.5A, (S or R)-2-(2-(3-(3,3-difluorocyclobutyl)-5,6,7,8-tetrahydroimidazo-[1,5-a]pyridin-7-yl)ethyl)-7-methoxy-[1,2,4]triazolo[1,5-c]-quinazolin-5-amine] |
| 0.5 | COc1cccc2c1nc(N)n1nc(CCC3CCn4c(cnc4C4CC(F)(F)C4)C3)nc21 (single isomer, unassigned) [Example 7.5B, (R or S)-2-(2-(3-(3,3-difluorocyclobutyl)-5,6,7,8-tetrahydroimidazo-[1,5-a]pyridin-7-yl)ethyl)-7-methoxy-[1,2,4]triazolo[1,5-c]-quinazolin-5-amine] |
| 1 | COc1cc(F)cc2c1nc(N)n1nc(CCC3CCc4c(nnn4C4CC(F)(F)C4)C3)nc21 (single isomer, unassigned) [Example 7.6A, (S or R)-2-(2-(1-(3,3-difluorocyclobutyl)-4,5,6,7-tetrahydro-1H-benzo[d][1,2,3]triazol-5-yl)ethyl)-9-fluoro-7-methoxy-[1,2,4]-triazolo[1,5-c]quinazolin-5-amine] |
| 2.1 | COc1cccc2c1nc(N)n1nc(CCC3CCc4c(cnn4C(C)C)C3)nc21 (single isomer, unassigned) [Example 7.8A, (S or R)-2-(2-(1-isopropyl-4,5,6,7-tetrahydro-1H-indazol-5-yl)-ethyl)-7-methoxy-[1,2,4]triazolo[1,5-c]quinazolin-5-amine] |
| 2.4 | COc1cccc2c1nc(N)n1nc(CCC3CCc4c(cnn4C(C)C)C3)nc21 (single isomer, unassigned) [Example 7.8B, (R or S)-2-(2-(1-isopropyl-4,5,6,7-tetrahydro-1H-indazol-5-yl)ethyl)-7-methoxy-[1,2,4]triazolo[1,5-c]quinazolin-5-amine] |
